The target in experiment [1] is T1, human RXFP4 (hRXFP4-CHO stably transfected cell line) (Homo sapiens, UniProt Q8TDU9).
T1 construct: expressed in transfected cells; host or cells: CHO
The experiment in a line: Measurement of intracellular cAMP concentration (in vitro RXFP4 agonist activity). It counts as cell-based. The following applies: hRXFP4-CHO cells, 500 nM Forskolin; for Emax ± S.E.M. (% INSL5): relative to INSL5. How it is done:
1. Detection Method: Measurement of Intracellular cAMP Concentration
CAMP detection kit (PerkinElmer), cell culture box (Thermo Fisher Scientific), EnVision multifunctional enzyme-linked immunosorbent assay (PerkinElmer), Forskolin (Sigma Aldrich), IBMX (Sigma Aldrich), DSMO (Sigma Aldrich), hINSL5 (Genova, human insulin-like peptide 5), hRXFP4-CHO stably transfected cell line for stable expression of human RXFP4, and test compound.
Stably transfected hRXFP4-CHO cells were seeded at 2.5×10^5 cells/mL the day before the experiment to maintain a growth density of 70%-80% in the culture dish the next day. On the day of the experiment, cells were digested with trypsin free digestion solution or 0.02% EDTA PBS solution, centrifugated, the supernatant was discarded, and cAMP experimental buffer (0.5 mM IBMX+5 mM HEPES+0.1% BSA) was prepared using 1×HBSS (calcium and magnesium free) solution. The cells were resuspended and inoculated to a 384 well plate at 4000 cells per well. The compound which was diluted with DMSO to different concentrations were added to the above 384 well plate. At the same time, 500 nM Forskolin was added and incubated at room temperature for 40 minutes. Then Eu cAMP and ULight anti cAMP working solutions were added according to the cAMP detection kit instructions. After incubation at room temperature for 40 minutes, an EnVision multifunctional enzyme-linked immunosorbent assay reader was used to read the results (excitation wavelength of 320 or 340 nm, detection emission wavelength of 665 nm).

A further experiment deals with T2, RXFP4 (HRXFP4 CHO cells) (Homo sapiens, UniProt Q8TDU9).
T2 construct: expressed in transfected cells; host or cells: CHO
The experiment in a line: Ligand receptor affinity detection (Eu-R3/I5 competition on HRXFP4 CHO cells). It counts as binding. The note with it: for Ki: 5 nM Eu-R3/I5, 1 hour room temperature, read-out: pKi ± S.E.M. (converted); for Span ± S.E.M. (% R3/I5): 5 nM Eu-R3/I5, relative to R3/I5. The protocol:
2. Detection Method: Ligand Receptor Affinity Detection
Stably transfected HRXFP4 CHO cells and Eu—R3/I5 (lanthanide element europium labeled chimeric peptide R3/I5), BMG POLARstar reader (BMG Labtech), and test compound.
HRXFP4 CHO was introduced into a 96 well plate at 80000 cells per well. After 24 hours of cell culture in the incubator, discarded the supernatant, and washed once with PBS, then a binding buffer containing 1% BSA was added and incubated at room temperature for 1 hour. The cell plate was then washed once with PBS, followed by the addition of different concentrations of positive controls and test compounds, and incubated at room temperature with 5 nM Eu—R3/I5 for 1 hour.
After washing the cell plate once with PBS, an enhancement solution was added. After 45 minutes, the fluorescence value was measured using a BMG POLARstar reader (excitation wavelength of 340 nm, detection emission wavelength of 614 nm).

T2 sequence (Q8TDU9 whole entry): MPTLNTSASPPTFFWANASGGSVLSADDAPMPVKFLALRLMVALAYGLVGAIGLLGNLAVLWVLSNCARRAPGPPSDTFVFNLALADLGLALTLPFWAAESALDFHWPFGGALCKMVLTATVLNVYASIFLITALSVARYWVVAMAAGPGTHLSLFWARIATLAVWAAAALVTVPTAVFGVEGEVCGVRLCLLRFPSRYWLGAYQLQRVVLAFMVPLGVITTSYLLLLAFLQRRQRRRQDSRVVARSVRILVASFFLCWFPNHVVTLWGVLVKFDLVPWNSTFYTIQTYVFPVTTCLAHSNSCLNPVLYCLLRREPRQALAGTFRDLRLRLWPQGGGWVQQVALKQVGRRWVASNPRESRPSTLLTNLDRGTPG
T1 sequence (Q8TDU9 whole entry): as above

The EC50 is the concentration that produces a half-maximal response. Take `CCOc1cc2c(cc1OC)CCN(C(=O)N1CCOCC1)C2CCc1c[nH]c2c(C)cc(OC)cc12` (stereo not drawn) [Compound A58, (7-ethoxy-6-methoxy-1-(2-(5-methoxy-7-methyl-1H-indol-3-yl)ethyl)-3,4-dihydroisoquinolin-2(1H)-yl)(morpholino) methanone]: in experiment [1] (40 minutes room temperature), the EC50 was 447 nM. Besides, the “Emax ± S.E.M. (% INSL5)” value in experiment [1] turned out to be 92.58 ± 7.46 % INSL5. For the same compound, the Ki on RXFP4 (HRXFP4 CHO cells) was greater than 100000 nM.

Turning to `CCOc1cc2c(cc1OC)CCN(C(=O)N1CCOCC1)C2CCc1c[nH]c2ncccc12` (stereo not drawn) [Compound A69, (1-(2-(1H-pyrrolo[2,3-b]pyridin-3-yl)ethyl)-7-ethoxy-6-methoxy-3,4-dihydroisoquinolin-2(1H)-yl) (morpholino)methanone], the EC50 in experiment [1] (40 minutes room temperature) is 10000 nM. Further, in experiment [1], the “Emax ± S.E.M. (% INSL5)” value was 58.19 ± 7.80 % INSL5. In addition, on RXFP4 (HRXFP4 CHO cells), the Ki was greater than 100000 nM.

In experiment [1] (40 minutes room temperature), `CCOc1cc2c(cc1OC)CCN(C(=O)N1CC[S+]([O-])CC1)C2CCc1c[nH]c2ccc(OC)cc12` (stereo not drawn) [Compound A5, (7-ethoxy-6-methoxy-1-(2-(5-methoxy-1H-indol-3-yl)ethyl)-3,4-dihydroisoquinolin-2(1H)-yl)(1-oxothiomorpholinyl)methanone] showed an EC50 of 10200 nM. In experiment [1], the “Emax ± S.E.M. (% INSL5)” value was found to be 56.43 ± 4.70 % INSL5. Also, at RXFP4 (HRXFP4 CHO cells), the Ki is greater than 100000 nM.

In experiment [1] (40 minutes room temperature), `COc1cc2c(cc1OC)C(CCc1c[nH]c3ccccc13)N(C(=O)c1ccncc1)CC2` (stereo not drawn) [Compound A77, (1-(2-(1H-indol-3-yl)ethyl)-6,7-dimethoxy-3,4-dihydroisoquinolin-2(1H)-yl)(pyridin-4-yl)methanone] showed an EC50 of 437 nM. For the same compound, in experiment [1], the “Emax ± S.E.M. (% INSL5)” value is 25.96 ± 5.50 % INSL5. The Ki on RXFP4 (HRXFP4 CHO cells) is greater than 100000 nM.

In turn, `COc1ccc2[nH]cc(CCC3c4cc(OCc5ccccc5)c(OC)cc4CCN3C(=O)N3CCOCC3)c2c1` (stereo not drawn) [Compound A30, (7-(benzyloxy)-6-methoxy-1-(2-(5-methoxy-1H-indol-3-yl)ethyl)-3,4-dihydroisoquinolin-2(1H)-yl) (morpholino)methanone] had an EC50 in experiment [1] (40 minutes room temperature) of 427 nM. In addition, the “Emax ± S.E.M. (% INSL5)” value in experiment [1] is listed as 82.33 ± 8.47 % INSL5. Also, on RXFP4 (HRXFP4 CHO cells), the Ki was 851 nM and the “Span ± S.E.M. (% R3/I5)” value was found to be 81.61 ± 7.65 % R3/I5.

On to `CCOc1cc2c(cc1OC)CCN(C(=O)N1CCOCC1)[C@H]2CCc1c[nH]c2ccc(OC)cc12` [(S)-A1, (S)-(7-ethoxy-6-methoxy-1-(2-(5-methoxy-1H-indol-3-yl)ethyl)-3,4-dihydroisoquinolin-2(1H)-yl)(morpholino)methanone], for which the “pEC50 ± S.E.M.” value in experiment [1] (40 minutes room temperature) is listed as 7.24 ± 0.12. Besides, the “Emax ± S.E.M. (% INSL5)” value in experiment [1] came out at 98.76 ± 5.71 % INSL5. At RXFP4 (HRXFP4 CHO cells), the Ki was 58.9 nM and the “Span ± S.E.M. (% R3/I5)” value came out at 81.87 ± 4.47 % R3/I5.

In experiment [1] (40 minutes room temperature), `CCOc1cc2c(cc1OC)CCN(C(=O)N1CCOCC1)C2CCc1c[nH]c2ccc(C#N)cc12` (stereo not drawn) [Compound A57, 3-(2-(7-ethoxy-6-methoxy-2-(morpholine-4-carbonyl)-1,2,3,4-tetrahydroisoquinolin-1-yl)ethyl)-1H-indole-5-carbonitrile] gave an EC50 of 27.5 nM. In addition, the “Emax ± S.E.M. (% INSL5)” value in experiment [1] amounted to 82.15 ± 4.95 % INSL5. At RXFP4 (HRXFP4 CHO cells), the Ki was 129 nM and the “Span ± S.E.M. (% R3/I5)” value was determined as 92.06 ± 3.95 % R3/I5.

Compound `CCOc1cc2c(cc1OC)CCN(C(=O)N1CCOCC1)C2CCc1c[nH]c2c(CC)cccc12` (stereo not drawn) [Compound A60, (7-Ethoxy-1-(2-(7-ethyl-1H-indol-3-yl)ethyl)-6-methoxy-3,4-dihydroisoquinolin-2(1H)-yl) (morpholino)methanone] had an EC50 in experiment [1] (40 minutes room temperature) of 417 nM. Also, the “Emax ± S.E.M. (% INSL5)” value in experiment [1] was 72.49 ± 8.04 % INSL5. Further, at RXFP4 (HRXFP4 CHO cells), the Ki was 1700 nM and the “Span ± S.E.M. (% R3/I5)” value came out at 75.02 ± 7.56 % R3/I5.

`CCOc1cc2c(cc1OC)CCN(C(=O)N1CCOCC1)[C@@H]2CCc1c[nH]c2ccc(OC)cc12` [(R)-A1, (R)-(7-ethoxy-6-methoxy-1-(2-(5-methoxy-1H-indol-3-yl)ethyl)-3,4-dihydroisoquinolin-2(1H)-yl)(morpholino)methanone] showed an EC50 in experiment [1] (40 minutes room temperature) of 933 nM. The “Emax ± S.E.M. (% INSL5)” value in experiment [1] came to 60.14 ± 10.64 % INSL5. For the same compound, the Ki on RXFP4 (HRXFP4 CHO cells) was greater than 100000 nM.

Consider `CCOc1cc2c(cc1OC)CCN(C(=O)c1cscn1)[C@H]2CCc1c[nH]c2ccc(OC)cc12` [Compound A80, (S)-(7-ethoxy-6-methoxy-1-(2-(5-methoxy-1H-indol-3-yl)ethyl)-3,4-dihydroisoquinolin-2(1H)-yl) (thiazol-4-yl)methanone], for which the Ki at RXFP4 (HRXFP4 CHO cells) is greater than 100000 nM.

Turning to `CCOc1cc2c(cc1OC)CCN(C(=O)c1ccccn1)C2CCc1c[nH]c2ccc(OC)cc12` (stereo not drawn) [Compound A9, (7-ethoxy-6-methoxy-1-(2-(5-methoxy-1H-indol-3-yl)ethyl)-3,4-dihydroisoquinolin-2(1H)-yl) (pyridin-2-yl)methanone], the EC50 in experiment [1] (40 minutes room temperature) is 14800 nM. In addition, in experiment [1], the “Emax ± S.E.M. (% INSL5)” value is reported as 44.09 ± 5.25 % INSL5. Further, the Ki on RXFP4 (HRXFP4 CHO cells) is greater than 100000 nM.

In experiment [1] (40 minutes room temperature), `COc1cc2c(cc1OC)[C@H](CCc1c[nH]c3cc(C)ccc13)N(C(=O)C1CCOCC1)CC2` [Compound A76, (S)-(6,7-dimethoxy-1-(2-(6-methyl-1H-indol-3-yl)ethyl)-3,4-dihydroisoquinolin-2(1H)-yl) (tetrahydro-2H-pyran-4-yl)methanone] had an EC50 of 3160 nM. In addition, the “Emax ± S.E.M. (% INSL5)” value in experiment [1] amounted to 43.69 ± 7.43 % INSL5. The Ki on RXFP4 (HRXFP4 CHO cells) was greater than 100000 nM.

As to `COc1cc2c(cc1OC)C(Cc1c[nH]c3ccccc13)N(CC1CCOCC1)CC2` (stereo not drawn) [Compound A83], the Ki on RXFP4 (HRXFP4 CHO cells) is greater than 100000 nM.

`CCOc1cc2c(cc1OC)CCN(C(=O)N1CCS(=O)(=O)CC1)C2CCc1c[nH]c2ccc(OC)cc12` (stereo not drawn) [Compound A6, (1,1-dioxothiomorpholino) (7-ethoxy-6-methoxy-1-(2-(5-methoxy-1H-indol-3-yl)ethyl)-3,4-dihydroisoquinolin-2(1H)-yl)methylmethanone] had a 50% effective concentration (EC50) in experiment [1] (40 minutes room temperature) of 9330 nM. Further, the “Emax ± S.E.M. (% INSL5)” value in experiment [1] was 51.74 ± 6.72 % INSL5. For the same compound, the Ki at RXFP4 (HRXFP4 CHO cells) is greater than 100000 nM.

`CCOc1cc2c(cc1OC)CCN(C(=O)N1CCC(F)CC1)C2CCc1c[nH]c2ccc(OC)cc12` (stereo not drawn) [Compound A3, (4-fluoropiperidin-1-yl) (7-ethoxy-6-methoxy-1-(2-(5-methoxy-1H-indol-3-yl)ethyl)-3,4-dihydroisoquinolin-2(1H)-yl)methanone] gave an EC50 in experiment [1] (40 minutes room temperature) of 204 nM. Moreover, the “Emax ± S.E.M. (% INSL5)” value in experiment [1] came to 101.82 ± 9.08 % INSL5. On RXFP4 (HRXFP4 CHO cells), the Ki was 209 nM and the “Span ± S.E.M. (% R3/I5)” value is recorded as 86.26 ± 6.71 % R3/I5.

In experiment [1] (40 minutes room temperature), `CCOc1cc2c(cc1OC)CCN(C(=O)N1CCOCC1)C2CCc1c[nH]c2ccc(OC)cc12` (stereo not drawn) [Compound A1, (7-ethoxy-6-methoxy-1-(2-(5-methoxy-1H-indol-3-yl)ethyl)-3,4-dihydroisoquinolin-2(1H)-yl) (morpholino)methanone] had a half-maximal effective concentration (EC50) of 87.1 nM. For the same compound, the “Emax ± S.E.M. (% INSL5)” value in experiment [1] came out at 87.64 ± 4.58 % INSL5. For the same compound, on RXFP4 (HRXFP4 CHO cells), the Ki is 148 nM and the “Span ± S.E.M. (% R3/I5)” value is 88.98 ± 6.07 % R3/I5.

Regarding `CCOc1cc2c(cc1OC)CCN(C(=O)N1CCC(F)(F)CC1)C2CCc1c[nH]c2ccc(OC)cc12` (stereo not drawn) [Compound A4, (4,4-difluoropiperidin-1-yl) (7-ethoxy-6-methoxy-1-(2-(5-methoxy-1H-indol-3-yl)ethyl)-3,4-dihydroisoquinolin-2(1H)-yl)methanone], the EC50 in experiment [1] (40 minutes room temperature) was 57.5 nM. Moreover, the “Emax ± S.E.M. (% INSL5)” value in experiment [1] is 62.00 ± 5.42 % INSL5. In addition, on RXFP4 (HRXFP4 CHO cells), the Ki was 631 nM and the “Span ± S.E.M. (% R3/I5)” value is given as 66.34 ± 7.29 % R3/I5.

For the origin of these results see patent US20250340545A1, “TETRAHYDROISOQUINOLINE COMPOUND, PREPARATION METHOD THEREFOR, PHARMACEUTICAL COMPOSITION CONTAINING SAID COMPOUND, AND USE THEREOF” (SHANGHAI INSTITUTE OF MATERIA MEDICA, CHINESE ACADEMY OF …, priority 2022, published 2025).
